From US10689354B2, “Aminoazole derivative” (Teijin Pharma Limited, priority 2015, dated 2020)

Columns and labels:
[1] = molecular target: T1, androgen receptor (AR-LBD) (Rattus norvegicus, UniProt P15207); assay: Evaluation of androgen receptor affinity (PolarScreen Androgen Receptor Competitor Assay Kit, Red; fluorescence polarization); settings: 22° C. for 5 hours, relative to binding rate of 1 μM DHT, read-out: AR affinity (pEC50) (converted)
T1 construct: 5 μL of 2×AR-LBD/Fluoromone AL Red Complex contained in the kit; purchased Invitrogen
T1 sequence (P15207 651-882 limits assumed): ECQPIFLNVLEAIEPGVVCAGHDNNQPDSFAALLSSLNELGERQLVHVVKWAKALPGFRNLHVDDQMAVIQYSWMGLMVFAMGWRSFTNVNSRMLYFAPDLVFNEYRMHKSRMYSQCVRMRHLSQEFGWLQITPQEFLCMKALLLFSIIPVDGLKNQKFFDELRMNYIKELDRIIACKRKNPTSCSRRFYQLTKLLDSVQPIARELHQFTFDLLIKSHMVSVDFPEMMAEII
Outline: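 FP competition: compound + AR-LBD/Fluoromone AL Red tracer complex, 22° C, 5 h. Reference 1 μM DHT binding rate; pEC50 by 4-parameter fit.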

human androgen receptor = molecular target: T2, human androgen receptor (Homo sapiens, UniProt P10275); assay: Reporter assay of an androgen receptor responsive sequence (luciferase, transiently transfected HEK293 cells); assay type: cell-based; settings: 24 hours incubation, relative to activity of 100 nM DHT, read-out: AR transcriptive activity (pEC50) (converted)
T2 construct: expressed in transfected cells; host or cells: HEK293
T2 sequence (P10275 1-920): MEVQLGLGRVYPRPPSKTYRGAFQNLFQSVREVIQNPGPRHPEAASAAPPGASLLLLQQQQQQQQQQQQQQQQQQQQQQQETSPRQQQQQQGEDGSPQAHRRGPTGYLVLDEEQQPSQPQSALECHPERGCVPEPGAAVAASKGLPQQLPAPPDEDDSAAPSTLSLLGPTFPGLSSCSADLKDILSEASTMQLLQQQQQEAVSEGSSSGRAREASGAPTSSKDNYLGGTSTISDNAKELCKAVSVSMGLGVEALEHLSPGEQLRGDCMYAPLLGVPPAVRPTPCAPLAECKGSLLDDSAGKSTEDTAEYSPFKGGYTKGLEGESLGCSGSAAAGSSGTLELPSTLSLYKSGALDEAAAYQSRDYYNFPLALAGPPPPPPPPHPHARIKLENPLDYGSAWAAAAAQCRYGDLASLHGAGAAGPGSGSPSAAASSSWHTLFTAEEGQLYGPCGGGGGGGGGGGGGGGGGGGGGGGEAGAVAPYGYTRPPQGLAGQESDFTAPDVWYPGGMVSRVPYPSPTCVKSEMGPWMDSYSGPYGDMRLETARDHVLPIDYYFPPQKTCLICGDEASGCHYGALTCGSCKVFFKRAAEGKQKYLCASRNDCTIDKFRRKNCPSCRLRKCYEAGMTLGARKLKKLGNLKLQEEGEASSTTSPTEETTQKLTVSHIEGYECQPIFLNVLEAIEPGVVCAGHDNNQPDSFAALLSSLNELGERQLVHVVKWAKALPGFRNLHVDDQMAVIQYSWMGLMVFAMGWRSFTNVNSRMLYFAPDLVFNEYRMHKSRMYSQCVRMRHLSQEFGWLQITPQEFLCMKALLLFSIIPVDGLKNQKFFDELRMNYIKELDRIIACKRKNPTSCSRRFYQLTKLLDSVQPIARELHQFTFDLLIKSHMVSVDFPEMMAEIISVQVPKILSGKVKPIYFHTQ
Outline: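 Agonism scored as pEC50, fitted by 4-parameter curve against the response to 100 nM DHT, from dual-luciferase readout after 24 h compound treatment. Cells were HEK293 co-transfected (3 h) with human AR expression vector, androgen-responsive firefly reporter and Renilla control, in charcoal-stripped serum.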

Question: What does the source list for Cc1sc(N(Cc2ccc(F)cc2Cl)c2ccc(C#N)cc2)nc1C(=O)NS(C)(=O)=O [Compound 106, 2-[N-[(2-chloro-4-fluoro-phenyl)methyl]-4-cyano-anilino]-5-methyl-N-methylsulfonyl-thiazole-4-carboxamide]?
Answer: EC50 [1]: 79.4 nM; EC50 (human androgen receptor): 316 nM

Question: Which EC50 [1] does the source give for Cc1sc(N(Cc2cccs2)c2ccc(C#N)cc2)nc1C(=O)NS(C)(=O)=O [Compound 77, 2-[4-cyano-N-(2-thienylmethyl)anilino]-5-methyl-N-methylsulfonyl-thiazole-4-carboxamide] here?
Answer: 50.1 nM

Question: What about the EC50 (human androgen receptor) of the same compound?
Answer: 631 nM

Question: For Cc1sc(N(Cc2cccc(OC(F)F)c2)c2ccc(C#N)cc2)nc1C(=O)NS(C)(=O)=O [Compound 4, 2-[4-cyano-N-[[3-(difluoromethoxy)phenyl]methyl]anilino]-5-methyl-N-methylsulfonyl-thiazole-4-carboxamide], which EC50 [1] is on record?
Answer: 25.1 nM

Question: What about the EC50 (human androgen receptor) of the same compound?
Answer: 63.1 nM

Question: Cc1nc(CN(CCc2ccc(OC(F)F)cc2)c2nc(C(=O)NS(C)(=O)=O)c(C)s2)cs1 [Compound 513, 2-[2-[4-(difluoromethoxy)phenyl]ethyl-[(2-methylthiazol-4-yl)methyl]amino]-5-methyl-N-methylsulfonyl-thiazole-4-carboxamide] was tested. Which EC50 [1] did it give?
Answer: 200 nM

Question: What about the EC50 (human androgen receptor) of the same compound?
Answer: 1580 nM

Question: Cc1sc(N(Cc2cnc(-c3ccc(F)cc3)s2)c2ccc(C#N)cc2)nc1C(=O)NS(C)(=O)=O [Compound 494, 2-[4-cyano-N-[[2-(4-fluorophenyl)thiazol-5-yl]methyl]anilino]-5-methyl-N-methylsulfonyl-thiazole-4-carboxamide] was tested. Which EC50 [1] did it give?
Answer: 31.6 nM

Question: What about the EC50 (human androgen receptor) of the same compound?
Answer: 1000 nM

Question: Which results are given for Cc1sc(N(CCc2ccccc2)c2ccc(C#N)cc2)nc1C(=O)NS(C)(=O)=O [Compound 52, 2-[4-cyano-N-(2-phenylethyl)anilino]-5-methyl-N-methylsulfonyl-thiazole-4-carboxamide]?
Answer: EC50 [1]: 398 nM; EC50 (human androgen receptor): 2510 nM

Question: CS(=O)(=O)NC(=O)c1nc(N(Cc2cccc(Cl)c2)c2ccc(C#N)cc2)sc1Br [Example 247, 5-bromo-2-[N-[(3-chlorophenyl)methyl]-4-cyano-anilino]-N-methylsulfonyl-thiazole-4-carboxamide] was tested. Which EC50 [1] did it give?
Answer: 31.6 nM

Question: What about the EC50 (human androgen receptor) of the same compound?
Answer: 31.6 nM

Question: For COCCCS(=O)(=O)NC(=O)c1nc(N(Cc2ccc(OC(F)F)nc2)c2ccc(C#N)cc2)sc1C [Compound 525, 2-[4-cyano-N-[[6-(difluoromethoxy)-3-pyridyl]methyl]anilino]-N-(3-methoxypropylsulfonyl)-5-methyl-thiazole-4-carboxamide], which EC50 [1] is on record?
Answer: 50.1 nM

Question: And the EC50 (human androgen receptor)?
Answer: 631 nM

Question: With Cc1sc(N(Cc2ccc(-c3ccc(F)cc3)cn2)c2ccc(C#N)cc2)nc1C(=O)NS(C)(=O)=O [Compound 595, 2-[4-cyano-N-[[5-(4-fluorophenyl)-2-pyridyl]methyl]anilino]-5-methyl-N-methylsulfonyl-thiazole-4-carboxamide] as the compound, how does the EC50 [1] read?
Answer: 100 nM

Question: And the EC50 (human androgen receptor)?
Answer: 1260 nM

Question: With COc1cccc(CN(c2ccc(C#N)cc2)c2nc(C(=O)NS(C)(=O)=O)c(C)s2)c1 [Compound 3, 2-[4-cyano-N-[(3-methoxyphenyl)methyl]anilino]-5-methyl-N-methylsulfonyl-thiazole-4-carboxamide] as the compound, how does the EC50 [1] read?
Answer: 63.1 nM

Question: And the EC50 (human androgen receptor)?
Answer: 126 nM

Question: How did the EC50 [1] turn out when CS(=O)(=O)NC(=O)c1nc(N(Cc2ccccc2OC(F)F)c2ccc(C#N)cc2)sc1Br [Example 254, 5-bromo-2-[4-cyano-N-[[2-(difluoromethoxy)phenyl]methyl]anilino]-N-methylsulfonyl-thiazole-4-carboxamide] was run?
Answer: 39.8 nM

Question: What about the EC50 (human androgen receptor) of the same compound?
Answer: 158 nM

Question: Which results are given for Cc1sc(N(CCc2ccc(Cl)cc2)Cc2cccc(OC(F)(F)F)c2)nc1C(=O)NS(C)(=O)=O [Compound 145, 2-[2-(4-chlorophenyl)ethyl-[[3-(trifluoromethoxy)phenyl]methyl]amino]-5-methyl-N-methylsulfonyl-thiazole-4-carboxamide]?
Answer: EC50 [1]: 50.1 nM; EC50 (human androgen receptor): 316 nM

Question: Which results are given for Cc1sc(N(Cc2ccc(Br)c(F)c2)c2ccc(C#N)cc2)nc1C(=O)NS(C)(=O)=O [Example 181, 2-[N-[(4-bromo-3-fluoro-phenyl)methyl]-4-cyano-anilino]-5-methyl-N-methylsulfonyl-thiazole-4-carboxamide]?
Answer: EC50 [1]: 31.6 nM; EC50 (human androgen receptor): 25.1 nM

Question: For Cc1sc(N(CCc2cccc(F)c2)c2ccc(C#N)cc2)nc1C(=O)NS(C)(=O)=O [Compound 83, 2-[4-cyano-N-[2-(3-fluorophenyl)ethyl]anilino]-5-methyl-N-methylsulfonyl-thiazole-4-carboxamide], which EC50 [1] is on record?
Answer: 126 nM

Question: What about the EC50 (human androgen receptor) of the same compound?
Answer: 2510 nM

Question: What does the source list for Cc1sc(N(Cc2ccc3ncsc3c2)c2ccc(C#N)cc2)nc1C(=O)NS(C)(=O)=O [Compound 50, 2-[N-(1,3-benzothiazol-6-ylmethyl)-4-cyano-anilino]-5-methyl-N-methylsulfonyl-thiazole-4-carboxamide]?
Answer: EC50 [1]: 79.4 nM; EC50 (human androgen receptor): 50.1 nM

Question: Which EC50 [1] does the source give for Cc1sc(N(CCc2ccc(Cl)cc2)Cc2ccc(OC(F)(F)F)cc2)nc1C(=O)NS(=O)(=O)C1CC1 [Compound 702, 2-[2-(4-chlorophenyl)ethyl-[[4-(trifluoromethoxy)phenyl]methyl]amino]-N-cyclopropylsulfonyl-5-methyl-thiazole-4-carboxamide] here?
Answer: 200 nM

Question: And the EC50 (human androgen receptor)?
Answer: > 10000 nM

Question: Which EC50 [1] does the source give for Cc1nc(CN(c2ccc(C#N)cc2)c2nc(C(=O)NS(C)(=O)=O)c(Br)s2)cs1 [Example 281, 5-bromo-2-[4-cyano-N-[(2-methylthiazol-4-yl)methyl]anilino]-N-methylsulfonyl-thiazole-4-carboxamide] here?
Answer: 398 nM

Question: And the EC50 (human androgen receptor)?
Answer: 631 nM

Question: What does the source list for Cc1sc(N(CC[C@@H]2CCCC[C@H]2O)c2ccc(C#N)cc2)nc1C(=O)NS(C)(=O)=O (racemic) [Compound 410, 2-[4-cyano-N-[2-[trans-2-hydroxycyclohexyl]ethyl]anilino]-5-methyl-N-methylsulfonyl-thiazole-4-carboxamide]?
Answer: EC50 [1]: 158 nM; EC50 (human androgen receptor): 316 nM

Question: Cc1sc(N(Cc2ccc(Cl)cc2)Cc2csc3cc(C(F)(F)F)ccc23)nc1C(=O)NS(C)(=O)=O [Compound 677, 2-[(4-chlorophenyl)methyl-[[6-(trifluoromethyl)benzothiophen-3-yl]methyl]amino]-5-methyl-N-methylsulfonyl-thiazole-4-carboxamide] was tested. Which EC50 [1] did it give?
Answer: > 2000 nM

Question: What about the EC50 (human androgen receptor) of the same compound?
Answer: > 10000 nM

Question: What does the source list for Cc1sc(N(Cc2ccnc(C(F)(F)F)c2)c2ccc(C#N)cc2)nc1C(=O)NS(C)(=O)=O [Compound 538, 2-[4-cyano-N-[[2-(trifluoromethyl)-4-pyridyl]methyl]anilino]-5-methyl-N-methylsulfonyl-thiazole-4-carboxamide]?
Answer: EC50 [1]: 398 nM; EC50 (human androgen receptor): 3980 nM

Question: How did the EC50 [1] turn out when Cc1sc(N(CC[C@@H]2CCCC[C@@H]2O)c2ccc(C#N)cc2)nc1C(=O)NS(C)(=O)=O (racemic) [Compound 409, 2-[4-cyano-N-[2-[cis-2-hydroxycyclohexyl]ethyl]anilino]-5-methyl-N-methylsulfonyl-thiazole-4-carboxamide] was run?
Answer: 251 nM

Question: What about the EC50 (human androgen receptor) of the same compound?
Answer: 251 nM

Question: For Cc1sc(N(CCC2CC3CCC2C3)c2ccc(C#N)cc2)nc1C(=O)NS(C)(=O)=O (stereo not drawn) [Compound 482, 2-[4-cyano-N-(2-norbornan-2-ylethyl)anilino]-5-methyl-N-methylsulfonyl-thiazole-4-carboxamide], which EC50 [1] is on record?
Answer: 50.1 nM

Question: And the EC50 (human androgen receptor)?
Answer: 158 nM

Question: How did the EC50 [1] turn out when Cc1oc(N(CCc2ccc(OC(F)(F)F)cc2)Cc2nc(C3CC3)no2)nc1C(=O)NS(C)(=O)=O [Compound 560, 2-[(3-cyclopropyl-1,2,4-oxadiazol-5-yl)methyl-[2-[4-(trifluoromethoxy)phenyl]ethyl]amino]-5-methyl-N-methylsulfonyl-oxazole-4-carboxamide] was run?
Answer: 50.1 nM

Question: What about the EC50 (human androgen receptor) of the same compound?
Answer: 1000 nM

Question: How did the EC50 [1] turn out when Cc1sc(N(Cc2ccc(OC(F)(F)F)cc2)c2ccc(C(F)(F)F)nc2)nc1C(=O)NS(C)(=O)=O [Compound 471, 5-methyl-N-methylsulfonyl-2-[[4-(trifluoromethoxy)phenyl]methyl-[6-(trifluoromethyl)-3-pyridyl]amino]thiazole-4-carboxamide] was run?
Answer: 100 nM

Question: And the EC50 (human androgen receptor)?
Answer: 1000 nM
